Columns and labels:
[1] = tested on: Human immunodeficiency virus 1; assay: Tested against HIV-1 replication of KK-1AIDS strain in peripheral blood mononuclear cells (value obtained in the presence of 20% FCS); format: functional, organism-based
MT4 [2] = assay: Tested against HIV-1 induced cytopathic effect in MT-4 cells on LAV-1 strain; format: functional, Homo sapiens
MT4 [3] = assay: Tested for appearance of MT-4 cell toxicity after 5 days of incubation; format: functional; settings: Homo sapiens, MT4, 120 h; read-out: TD50 (the source's name)
[4] = Tested for anticoagulation effect by Zuchker's activated partial thromboplastin time (APTT) method; format: functional
[5] = (§1) Tested for cytopathic effect caused by KK-1AIDS strain in MT-4 cells in the presence of human serum; format: functional, cell-based; settings: MT4, Serum
[6] = (§2) Tested for cytopathic effect caused by LAV-1 strain in MT-4 cells in the presence of human serum; format: functional, cell-based; settings: MT4, Serum
MT4 [7] = assay: Tested against HIV-1 induced cytopathic effect in MT-4 cells on KK-1AIDS (strain clinically isolated from an AIDS patient); format: functional, Homo sapiens
MOLT-4 = assay: Tested for the suppressive effect on giant cell formation in MOLT-4 and MOLT-4/HIV LAV-1 cells (value obtained in the presence of 10% FCS); format: functional, cell-based; settings: Homo sapiens
MT4 [8] = assay: as §1; format: functional, cell-based
MT4 [9] = assay: as §2; format: functional, cell-based

Row | Compound | IC50 [1] [µg/mL] | IC100 (MT4 [2]) [µg/mL] | CC50 (MT4 [3]) [µg/mL] | APTT [4] [µg/mL] | IC50 [5] [µg/mL] | IC50 [6] [µg/mL] | IC100 (MT4 [7]) [µg/mL] | IC50 (MOLT-4) [µg/mL] | IC50 (MT4 [8]) [µg/mL] | IC50 (MT4 [9]) [µg/mL]
1 | O=S(=O)([O-])OC[C@@H]1O[C@@H]2O[C@H]3[C@H](OS(=O)(=O)[O-])[C@H](OCc4ccccc4)[C@@H](O[C@H]4[C@H](OS(=O)(=O)[O-])[C@H](OCc5ccccc5)[C@@H](O[C@H]5[C@H](OS(=O)(=O)[O-])[C@H](OCc6ccccc6)[C@@H](O[C@H]6[C@H](OS(=O)(=O)[O-])[C@H](OCc7ccccc7)[C@@H](O[C@H]7[C@H](OS(=O)(=O)[O-])[C@H](OCc8ccccc8)C(O[C@H]8[C@H](OS(=O)(=O)[O-])[C@H](OCc9ccccc9)C(O[C@H]1[C@H](OS(=O)(=O)[O-])[C@@H]2OCc1ccccc1)O[C@H]8COS(=O)(=O)[O-])O[C@H]7COS(=O)(=O)[O-])O[C@H]6COS(=O)(=O)[O-])O[C@H]5COS(=O)(=O)[O-])O[C@H]4COS(=O)(=O)[O-])O[C@H]3COS(=O)(=O)[O-].[Na+].[Na+].[Na+].[Na+].[Na+].[Na+].[Na+].[Na+].[Na+].[Na+].[Na+].[Na+].[Na+].[Na+] | 3.6 | 0.98 | 1000 | 14.8 | 5.8 | 0.87 | 0.98 | 0.46 |  | 
2 | O=S(=O)([O-])OCC1O[C@H]2O[C@@H]3C(CSCc4ccccc4)O[C@H](O[C@@H]4C(COS(=O)(=O)[O-])O[C@H](O[C@@H]5C(COS(=O)(=O)[O-])O[C@@H](O[C@@H]6C(CSCc7ccccc7)O[C@H](O[C@@H]7C(COS(=O)(=O)[O-])O[C@H](O[C@@H]8C(CSCc9ccccc9)O[C@H](O[C@H]1C(O)C2OS(=O)(=O)[O-])C(OS(=O)(=O)[O-])C8OS(=O)(=O)[O-])C(OS(=O)(=O)[O-])C7OS(=O)(=O)[O-])C(OS(=O)(=O)[O-])C6OS(=O)(=O)[O-])C(O)C5OS(=O)(=O)[O-])C(OS(=O)(=O)[O-])C4OS(=O)(=O)[O-])C(OS(=O)(=O)[O-])C3OS(=O)(=O)[O-].[K+].[K+].[K+].[K+].[K+].[K+].[K+].[K+].[K+].[K+].[K+].[K+].[K+].[K+].[K+].[K+] (some centres undefined) | 6.5 | 0.98 | > 1000 | 7.1 |  |  | 1.95 | 2 | 11 | 4.5
3 | O=S(=O)([O-])OCC1O[C@H]2O[C@@H]3C(COS(=O)(=O)[O-])O[C@H](O[C@@H]4C(COS(=O)(=O)[O-])O[C@H](O[C@@H]5C(COS(=O)(=O)[O-])O[C@H](O[C@@H]6C(COS(=O)(=O)[O-])O[C@@H](O[C@@H]7C(COS(=O)(=O)[O-])O[C@H](O[C@@H]8C(COS(=O)(=O)[O-])O[C@H](O[C@H]1C(OS(=O)(=O)[O-])C2O)C(OCc1ccccc1)C8OS(=O)(=O)[O-])C(O)C7OS(=O)(=O)[O-])C(OCc1ccccc1)C6OS(=O)(=O)[O-])C(OS(=O)(=O)[O-])C5OS(=O)(=O)[O-])C(OCc1ccccc1)C4OS(=O)(=O)[O-])C(OS(=O)(=O)[O-])C3OS(=O)(=O)[O-].[Na+].[Na+].[Na+].[Na+].[Na+].[Na+].[Na+].[Na+].[Na+].[Na+].[Na+].[Na+].[Na+].[Na+].[Na+].[Na+] (some centres undefined) |  | 1.95 | > 1000 | 4 |  |  | 3.9 |  |  | 
4 | O=S(=O)([O-])OC[C@@H]1O[C@@H]2O[C@H]3[C@H](OS(=O)(=O)[O-])[C@H](O)[C@@H](O[C@H]4[C@H](OS(=O)(=O)[O-])[C@H](O)[C@@H](O[C@H]5[C@H](OS(=O)(=O)[O-])[C@H](O)[C@@H](O[C@H]6[C@H](OS(=O)(=O)[O-])[C@H](O)[C@@H](O[C@H]7[C@H](OS(=O)(=O)[O-])[C@H](O)C(O[C@H]8[C@H](OS(=O)(=O)[O-])[C@H](O)C(O[C@H]1[C@H](OS(=O)(=O)[O-])[C@@H]2O)O[C@H]8COS(=O)(=O)[O-])O[C@H]7COS(=O)(=O)[O-])O[C@H]6COS(=O)(=O)[O-])O[C@H]5COS(=O)(=O)[O-])O[C@H]4COS(=O)(=O)[O-])O[C@H]3COS(=O)(=O)[O-].[K+].[K+].[K+].[K+].[K+].[K+].[K+].[K+].[K+].[K+].[K+].[K+].[K+].[K+] |  | 31.26 | > 1000 | 2.8 |  |  | 125 |  |  | 
